Laboratory results as given in patent publication US11858899B2, “Complexation of pirfenidone with polyphenolic calixarene or resorcin[4]arenes” (University of Cincinnati, priority 2021, dated 2024).
Converted amounts (≈) assume the structure as drawn. “Also recorded” adds a separate entry of the source. Like-named read-outs stand apart in the source and are kept apart here.

Tests used:
S. aureus (MU50) = assay: Broth serial dilution MIC / growth inhibition in 96-well plate; assay type: cell-based, Staphylococcus aureus; settings: for GI (growth inhibition): at the MIC concentration; for MIC: test range 128-2 ug/mL, LB medium
Procedure: (§1) 3 mg/ml stock solutions of PFD, RsC1, RsC1-PFD (1:1 complex), RsC4, and RsC4-PFD (1:1 complex) were prepared in DMSO (bcoz host soluble in DMSO solution). From the stock, a working solution 4× (highest conc. for each compound in plate) was prepared in LB media. 50 uL of LB media was first added in each well (96 well plate). Then a 4× solution of the respective compound was added to the first row (A4-A12) except A1-A3 (Positive control/bacterial innoculum). Then, the 4× was serially diluted up to well G for all 3 compounds. (A-G). Then, a 50 uL aliquot of the 100-fold diluted bacterial inoculum was added in each test well. Individual test concentrations (in triplicate wells in a 96-well plate) for the given compounds were achieved by serial dilution by using LB medium. Total volume in each well is 100 uL. The final-test concentration range for the individual test compounds for C. acnes, S. aureus and P. aeruginosa are as follows: PFD, RsC1, RsC4, RsC1-PFD complex and RsC4-PFD complex (128-2 ug/mL).

C. acnes = assay: as above; assay type: cell-based, Cutibacterium acnes; settings: for GI (growth inhibition): at the MIC concentration; for MIC: test range 128-2 ug/mL, LB medium
Procedure: 3 mg/ml stock solutions of RsC1, PFD and RsC1-PFD were prepared in DMSO (bcoz host soluble in DMSO solution). From the stock, a working solution 4× (highest conc. for each compound in plate) was prepared in LB media. 50 uL of LB media were first added in each well (96 well plate). Then a 4× solution of each respective compound was added to the first row (A4-A12) except A1-A3 (Positive control/bacterial innoculum). Then the 4× was serially diluted up to well G for all 3 compounds. (A-G). Then, a 50 uL aliquot of the 100-fold diluted bacterial inoculum was added in each test well. Individual test concentrations (in triplicate wells in a 96-well plate) for the given compounds were achieved by serial dilution by using LB medium. Total volume in each well was 100 uL. The final-test concentration range for the individual test compounds for C. acne were as follows: Macrocycle, PFD and RsC1-PFD complex (128-2 ug/mL). The results are shown in FIG. 10, which is a bar plot of absorbance (at 600 nm) at various test compound concentrations, showing the percent inhibition of pathogen growth in the presence of decreasing concentrations of the test compounds using a twofold dilution series.
as §1, with “RsC4-PFD” for “RsC1, RsC1-PFD”, “complex),” for “complex), RsC4,”, “RsC4” for “RsC4-PFD (1:1 complex)”, “acne” for “acnes, S. aureus and P. aeruginosa are”, “Macrocycle, PFD” for “PFD, RsC1, RsC4, RsC1-PFD complex”
as §1

P. aeruginosa (BAMF) = assay: as above; assay type: cell-based, Pseudomonas aeruginosa; settings: for GI (growth inhibition): at the MIC concentration; for MIC: test range 128-2 ug/mL, LB medium
Procedure: as §1

E. Coli (G-ve) bacteria = assay: Zone of inhibition (ZI) paper disc test, antibacterial/antioxidant activity; assay type: cell-based; settings: for Inference: radical scavenger: from ZI change with H2O2 / pyrogallol; for Zone of inhibition (ZI), 5 uL of (Compound + H2O2): premixed 0.01M compound + 0.88M H2O2, 1:1; for Zone of inhibition (ZI), 5 uL of (Compound + Pyrogallol): premixed 0.01M compound + 1M Pyrogallol, 1:1; for Zone of inhibition (ZI), 5 uL of 0.01M Compound: pure compound on paper disc;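 as to Inference: radical scavenger: smaller zone than oxidant alone means antioxidant and larger means oxidant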
Procedure: (§2) Tests were conducted to check the antioxidant/antibacterial activity of macrocycle and host-guest compounds. 5 uL of 0.01M compound, 5 uL (premixed, 0.01M compound+1M Pyrogallol, 1:1) and 5 uL (premixed, 0.01M compound+0.88M H2O2, 1:1) were added on paper discs placed on plates. 5 uL of 1M pyrogallol, 5 uL of 0.88M H2O2 were used as control (oxidants). In the following tables, Decrease/Increase means wrt pure H2O2 or pyrogallol. […] Zone=mm of zone width around disk. Decrease/Increase wrt pure H2O2 or pyrogallol.

[1] = test system: klebsiella pneumoniae (G -ve) bacteria; assay: as above; assay type: cell-based; settings: for Inference: radical scavenger: from ZI change with H2O2 / pyrogallol; for Zone of inhibition (ZI), 5 uL of (Compound + H2O2): premixed 0.01M compound + 0.88M H2O2, 1:1; for Zone of inhibition (ZI), 5 uL of (Compound + Pyrogallol): premixed 0.01M compound + 1M Pyrogallol, 1:1; for Zone of inhibition (ZI), 5 uL of 0.01M Compound: pure compound on paper disc;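 as to Inference: radical scavenger: smaller zone than oxidant alone means antioxidant and larger means oxidant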
Procedure: as §2

[2] = test system: Pseudomonas aeruginosa (G-ve) bacteria; assay: as above; assay type: cell-based; settings: for Inference: radical scavenger: from ZI change with H2O2 / pyrogallol; for Zone of inhibition (ZI), 5 uL of (Compound + H2O2): premixed 0.01M compound + 0.88M H2O2, 1:1; for Zone of inhibition (ZI), 5 uL of (Compound + Pyrogallol): premixed 0.01M compound + 1M Pyrogallol, 1:1; for Zone of inhibition (ZI), 5 uL of 0.01M Compound: pure compound on paper disc;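 as to Inference: radical scavenger: smaller zone than oxidant alone means antioxidant and larger means oxidant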
Procedure: as §2

[3] = test system: Staphylococcus aureus (G+ve) bacteria; assay: as above; assay type: cell-based; settings: for Inference: radical scavenger: from ZI change with H2O2 / pyrogallol; for Inference: Anti-bacterial potential: from ZI of pure compound; for Zone of inhibition (ZI), 5 uL of (Compound + H2O2): premixed 0.01M compound + 0.88M H2O2, 1:1, decrease vs pure H2O2 = antioxidant; for Zone of inhibition (ZI), 5 uL of (Compound + Pyrogallol): premixed 0.01M compound + 1M Pyrogallol, 1:1, decrease vs pure pyrogallol = antioxidant; for Zone of inhibition (ZI), 5 uL of 0.01M Compound: pure compound on paper disc, zone width around disk
Procedure: as §2, with “disk.” for “disk. Decrease/Increase wrt pure H2O2 or pyrogallol.”

| SMILES | GI (growth inhibition) (S. aureus (MU50)) [%] | GI (growth inhibition) (C. acnes) [%] | GI (growth inhibition) (P. aeruginosa (BAMF)) [%] | Inference: radical scavenger (E. Coli (G-ve) bacteria) | Zone of inhibition (ZI), 5 uL of (Compound + H2O2) (E. Coli (G-ve) bacteria) | Zone of inhibition (ZI), 5 uL of (Compound + Pyrogallol) (E. Coli (G-ve) bacteria) | Zone of inhibition (ZI), 5 uL of 0.01M Compound (E. Coli (G-ve) bacteria) | Inference: radical scavenger [1] | Zone of inhibition (ZI), 5 uL of (Compound + H2O2) [1] | Zone of inhibition (ZI), 5 uL of (Compound + Pyrogallol) [1] | Zone of inhibition (ZI), 5 uL of 0.01M Compound [1] | Zone of inhibition (ZI), 5 uL of (Compound + H2O2) [2] | Zone of inhibition (ZI), 5 uL of (Compound + Pyrogallol) [2] | Zone of inhibition (ZI), 5 uL of 0.01M Compound [2] | Inference: radical scavenger [3] | Zone of inhibition (ZI), 5 uL of (Compound + H2O2) [3] | Zone of inhibition (ZI), 5 uL of (Compound + Pyrogallol) [3] | Zone of inhibition (ZI), 5 uL of 0.01M Compound [3] | Inference: radical scavenger [2] | other results |
| --- | --- | --- | --- | --- | --- | --- | --- | --- | --- | --- | --- | --- | --- | --- | --- | --- | --- | --- | --- | --- |
| CC1c2cc(c(O)cc2O)C(C)c2cc(c(O)cc2O)C(C)c2cc(c(O)cc2O)C(C)c2cc1c(O)cc2O (stereo not shown) [RsC1, C-methylresorcin[4]arene] | 98 | 96 | 47 | Moderate | (1.9 mm) | No ZI | No ZI | Moderate | (2.4 mm) | No ZI | No ZI | (2.1 mm) | pyrogallol (1.2 mm | No ZI | potential/Low | (4.2 mm) | (2.5 mm) | (1.2 mm) | – | MIC (S. aureus (MU50)): 16 µg/mL (≈ 29.4 µM); percent inhibition of pathogen growth (C. acnes; at 16 μg/mL, absorbance at 600 nm (FIG. 10)): 35%; MIC (C. acnes): 64 µg/mL (≈ 118 µM); MIC (P. aeruginosa (BAMF)): 64 µg/mL (≈ 118 µM); Inference: radical scavenger ([2]; listed as R1): low antioxidant activity; also recorded: Low radical; Inference: Anti-bacterial potential ([3]; listed as R1): slight anti-bacterial activity |
| Oc1cccc(O)c1O [pyrogallol, Pyrogallol] | – | – | – | – | – | – | – | – | – | – | – | – | – | – | – | – | – | – | – | Zone of inhibition (ZI), 5 uL of 1M pyrogallol (E. Coli (G-ve) bacteria; oxidant control alone): ZI (0.9 mm; Zone of inhibition (ZI), 5 uL of 1M pyrogallol ([1]; oxidant control alone): ZI (0.9 mm; Zone of inhibition (ZI), 5 uL of 1M pyrogallol ([2]; oxidant control alone): ZI (1.1 mm; Zone of inhibition (ZI), 5 uL of 1M pyrogallol ([3]; oxidant control alone): (3.3 mm) |
| OCCN1CCN(Cc2ccc(O)c3ncccc23)CC1 [VK] | – | – | – | High radical | No ZI | No ZI | No ZI | Moderate | (2.3 mm) | No ZI | No ZI | (2.2 mm) | (0.7 mm) | No ZI | Low radical | (3.7 mm) | (2.3 mm) | No ZI | Moderate | – |
| Cc1ccc(=O)n(-c2ccccc2)c1 [PFD, 5-methyl-1-phenylpyridin-2-one] | 45 | 98 | 35 | Moderate OH | (1.7 mm) | No ZI | No ZI | Moderate | (2.2 mm) | No ZI | No ZI | (2.7 mm) | pyrogallol (1.2 mm | No ZI | low to high free radical scavenging effect; also recorded: Moderate | slightly (3.8 mm | No ZI | No ZI | no free radical scavenging effect | MIC (S. aureus (MU50); Staphylococcus aureus, read-out: MIC): 128 µg/mL (≈ 691 µM); MIC (C. acnes; Cutibacterium acnes, read-out: MIC): 128 µg/mL (≈ 691 µM); MIC (P. aeruginosa (BAMF); Pseudomonas aeruginosa, read-out: MIC): 128 µg/mL (≈ 691 µM) |
| CCCCCCC1c2cc(c(O)c(O)c2O)C(CCCCCC)c2cc(c(O)c(O)c2O)C(CCCCCC)c2cc(c(O)c(O)c2O)C(CCCCCC)c2cc1c(O)c(O)c2O (stereo not shown) [P6] | – | – | – | Moderate | (1.7 mm) | No ZI | No ZI | Moderate | (2 mm) | No ZI | No ZI | (2.2 mm) | pyrogallol (1.2 mm | No ZI | Low radical | (3.8 mm) | (2 mm) | No ZI | Low radical | – |
| CCCCC1c2cc(c(O)cc2O)C(CCCC)c2cc(c(O)cc2O)C(CCCC)c2cc(c(O)cc2O)C(CCCC)c2cc1c(O)cc2O (stereo not shown) [RsC4, C-butylresorcin[4]arene] | 52 | 98 | 56 | Moderate | (1.7 mm) | No ZI | No ZI | High OH | No ZI | No ZI | No ZI | (2.1 mm) | (1.4 mm) | No ZI | Low radical | (3.6 mm) | (2.3 mm) | No ZI | Low radical | MIC (S. aureus (MU50)): 128 µg/mL (≈ 180 µM); MIC (C. acnes): 128 µg/mL (≈ 180 µM); MIC (P. aeruginosa (BAMF)): 64 µg/mL (≈ 89.8 µM); Inference: Anti-bacterial potential [3]: none |
| OO [H2O2] | – | – | – | – | – | – | – | – | – | – | – | – | – | – | – | – | – | – | – | Zone of inhibition (ZI), 5 uL of 0.88M H2O2 (E. Coli (G-ve) bacteria; oxidant control alone): ZI (2.9 mm; Zone of inhibition (ZI), 5 uL of 0.88M H2O2 ([1]; oxidant control alone): ZI (3 mm; Zone of inhibition (ZI), 5 uL of 0.88M H2O2 ([2]; oxidant control alone): ZI (2.7 mm; Zone of inhibition (ZI), 5 uL of 0.88M H2O2 ([3]; oxidant control alone): (4.6 mm) |
